Measured values reported in patent US11229623B2 (GlaxoSmithKline Intellectual Property (No.2) Limited, priority 2016, dated 2022).
pIC50: −log10 of the molar value.

biological target: T1, human TRPV4 (Homo sapiens, UniProt Q9HBA0); assay: FLIPR assay for hTRPV4 expressed in BHK cells: inhibition of Agonist Compound-induced calcium signal; assay type: cell-based; conditions: hTRPV4 in BHK/AC9 cells, FLIPR calcium signal, agonist at EC80; reported as range class; read-out: IC50
T1 construct: expressed in transfected cells; host or cells: BHK/AC9 cells transduced with BacMam virus
T1 sequence (Q9HBA0 whole entry): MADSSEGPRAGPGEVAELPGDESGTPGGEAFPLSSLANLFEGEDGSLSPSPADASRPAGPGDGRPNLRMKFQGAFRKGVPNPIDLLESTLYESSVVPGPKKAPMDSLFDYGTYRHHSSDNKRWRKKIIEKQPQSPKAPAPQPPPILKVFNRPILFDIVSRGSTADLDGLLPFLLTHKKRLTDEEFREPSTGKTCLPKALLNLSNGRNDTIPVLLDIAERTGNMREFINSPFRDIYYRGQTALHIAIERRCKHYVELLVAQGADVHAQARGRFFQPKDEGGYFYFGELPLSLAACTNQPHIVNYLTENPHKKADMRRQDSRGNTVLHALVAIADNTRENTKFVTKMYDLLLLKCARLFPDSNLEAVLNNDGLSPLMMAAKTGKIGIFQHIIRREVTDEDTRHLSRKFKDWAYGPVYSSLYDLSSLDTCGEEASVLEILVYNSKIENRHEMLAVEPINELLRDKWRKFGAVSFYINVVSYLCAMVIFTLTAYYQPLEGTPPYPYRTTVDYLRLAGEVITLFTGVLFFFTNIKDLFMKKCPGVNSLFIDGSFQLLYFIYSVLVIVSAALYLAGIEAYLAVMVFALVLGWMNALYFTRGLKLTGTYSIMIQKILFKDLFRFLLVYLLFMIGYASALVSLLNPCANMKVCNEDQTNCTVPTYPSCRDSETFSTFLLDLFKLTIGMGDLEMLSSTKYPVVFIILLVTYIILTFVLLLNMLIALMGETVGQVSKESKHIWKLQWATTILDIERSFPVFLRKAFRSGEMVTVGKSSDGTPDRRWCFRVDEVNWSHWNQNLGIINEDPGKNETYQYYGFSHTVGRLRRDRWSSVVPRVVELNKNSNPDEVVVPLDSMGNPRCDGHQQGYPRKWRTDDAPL
Method: FLIPR Assay for hTRPV4 Expressed in BHK Cells:
TRPV4 channel activation results in an influx of divalent and monovalent cations including calcium. The resulting changes in intracellular calcium were monitored using a calcium specific fluorescent dye Fluo-4 (MDS Analytical Technologies). BHK/AC9 cells transduced with BacMam virus expressing the human TRPV4 gene at a MOI of 78 were plated in a 384 well poly-D lysine coated plate (15,000 cells/well in 50 μL culture medium containing DMEM/F12 with 15 mM HEPES, 10% FBS, 1% Penicillin-Streptomycin and 1% L-glutamine). Cells were incubated for 24 hours at 37° C. and 5% CO2. Culture medium was then aspirated using a Tecan plate-washer and replaced with 20 μL/well of dye loading buffer: HBSS, 500 μM Brilliant Black (MDS Analytical Technologies), and 2 μM Fluo-4 AM. Dye loaded plates were then incubated in the dark at room temperature for 1-1.5 hours.

First: Cc1ccc(S(=O)(=O)N2C[C@H](Oc3ccc(C#N)c(F)c3)[C@](O)(CO)C2)cc1F [Example 118, 2-fluoro-4-(((3S,4R)-1-((3-fluoro-4-methylphenyl)sulfonyl)-4-hydroxy-4-(hydroxymethyl)pyrrolidin-3-yl)oxy)benzonitrile]
Second: N#Cc1ccc(O[C@H]2CN(S(=O)(=O)c3ccc(Cl)cc3Br)C[C@@]2(O)CO)cc1F [Example 120, 4-(((3S,4R)-1-((2-bromo-4-chlorophenyl)sulfonyl)-4-hydroxy-4-(hydroxymethyl)pyrrolidin-3-yl)oxy)-2-fluorobenzonitrile]
The pIC50 of the first is lower: 7.00 to 8.00 for the first, 8.00 to 10.00 for the second.

First: N#Cc1ccc(O[C@H]2CN(S(=O)(=O)c3ccc(OC(F)F)nc3)C[C@@]2(O)CO)cc1F [Example 126, 4-(((3S,4R)-1-((6-(difluoromethoxy)pyridin-3-yl)sulfonyl)-4-hydroxy-4-(hydroxymethyl)pyrrolidin-3-yl)oxy)-2-fluorobenzonitrile]
Second: N#Cc1ccc(O[C@H]2CN(S(=O)(=O)c3ccc(I)cn3)C[C@@]2(O)CO)cc1F [Example 130, 2-fluoro-4-(((3S,4R)-4-hydroxy-4-(hydroxymethyl)-1-((5-iodopyridin-2-yl)sulfonyl)pyrrolidin-3-yl)oxy)benzonitrile]
The pIC50 of the first is lower: 6.00 to 7.00 for the first, 7.00 to 8.00 for the second.

`N#Cc1ccc(O[C@H]2CN(S(=O)(=O)c3ccc(Cl)cn3)C[C@@]2(O)CO)c2ccccc12` [Example 57, 4-(((3S,4R)-1-((5-chloropyridin-2-yl)sulfonyl)-4-hydroxy-4-(hydroxymethyl)pyrrolidin-3-yl)oxy)-1-naphthonitrile] and `N#Cc1ccc(O[C@H]2CN(S(=O)(=O)c3ccccc3Cl)C[C@@]2(O)CO)cc1F` [Example 85, 4-(((3S,4R)-1-((2-chlorophenyl)sulfonyl)-4-hydroxy-4-(hydroxymethyl)pyrrolidin-3-yl)oxy)-2-fluorobenzonitrile] fall in the same range of pIC50: 7.00 to 8.00 for the first, 7.00 to 8.00 for the second.

`C[C@@H](O)[C@]1(O)CN(S(=O)(=O)c2ccc(C(F)F)cn2)C[C@@H]1Oc1ccc(C#N)c(F)c1` [Example 211, 4-(((3S,4R)-1-((5-(difluoromethyl)pyridin-2-yl)sulfonyl)-4-hydroxy-4-((R)-1-hydroxyethyl)pyrrolidin-3-yl)oxy)-2-fluorobenzonitrile] and `C[C@@H](O)[C@]1(O)CN(S(=O)(=O)c2ccc(OC(F)(F)F)cn2)C[C@@H]1Oc1ccc(C#N)c(F)c1` [Example 210, 2-fluoro-4-(((3S,4R)-4-hydroxy-4-((R)-1-hydroxyethyl)-1-((5-(trifluoromethoxy)pyridin-2-yl)sulfonyl)pyrrolidin-3-yl)oxy)benzonitrile] fall in the same range of pIC50: 7.00 to 8.00 for the first, 7.00 to 8.00 for the second.

First: CC(C)COc1cc(C#N)c(F)cc1O[C@H]1CN(S(=O)(=O)c2ccc(C(F)(F)F)cc2)C[C@@]1(O)CO [Example 182, 2-fluoro-4-(((3S,4R)-4-hydroxy-4-(hydroxymethyl)-1-((4-(trifluoromethyl)phenyl)sulfonyl)pyrrolidin-3-yl)oxy)-5-isobutoxybenzonitrile]
Second: CC(C)COc1cc(C#N)ccc1O[C@H]1CN(S(=O)(=O)c2ccc(C(F)(F)F)cc2C#N)C[C@@]1(O)CO [Example 170, 2-(((3R,4S)-4-(4-cyano-2-isobutoxyphenoxy)-3-hydroxy-3-(hydroxymethyl)pyrrolidin-1-yl)sulfonyl)-5-(trifluoromethyl)benzonitrile]
The pIC50 of the first is lower: 7.00 to 8.00 for the first, 8.00 to 10.00 for the second. The second is the more potent here.

`CCCCOc1cc(C#N)ccc1O[C@H]1CN(S(=O)(=O)c2ccc(C(F)(F)F)cc2C#N)C[C@@]1(O)CO` [Example 169, 2-(((3R,4S)-4-(2-butoxy-4-cyanophenoxy)-3-hydroxy-3-(hydroxymethyl)pyrrolidin-1-yl)sulfonyl)-5-(trifluoromethyl)benzonitrile] and `CCOc1cc(C#N)ccc1O[C@H]1CN(S(=O)(=O)c2ccc(C(F)(F)F)cc2C#N)C[C@@]1(O)CO` [Example 12, 2-(((3R,4S)-4-(4-cyano-2-ethoxyphenoxy)-3-hydroxy-3-(hydroxymethyl)pyrrolidin-1-yl)sulfonyl)-5-(trifluoromethyl)benzonitrile] fall in the same range of pIC50: 8.00 to 10.00 for the first, 8.00 to 10.00 for the second.

`N#Cc1cc(Cl)ccc1S(=O)(=O)N1C[C@H](Oc2cc(F)c(F)cc2F)[C@](O)(CO)C1` [Example 24, 5-chloro-2-(((3R,4S)-3-hydroxy-3-(hydroxymethyl)-4-(2,4,5-trifluorophenoxy)pyrrolidin-1-yl)sulfonyl)benzonitrile] and `N#Cc1cc(Cl)ccc1S(=O)(=O)N1C[C@H](Oc2ccc(F)c(F)c2F)[C@](O)(CO)C1` [Example 23, 5-chloro-2-(((3R,4S)-3-hydroxy-3-(hydroxymethyl)-4-(2,3,4-trifluorophenoxy)pyrrolidin-1-yl)sulfonyl)benzonitrile] fall in the same range of pIC50: 8.00 to 10.00 for the first, 8.00 to 10.00 for the second.

Compared with `C[C@@H](O)[C@]1(O)CN(S(=O)(=O)c2ccc(I)cc2)C[C@@H]1Oc1ccc(C#N)c(F)c1` [Example 209, 2-fluoro-4-(((3S,4R)-4-hydroxy-4-((R)-1-hydroxyethyl)-1-((4-iodophenyl)sulfonyl)pyrrolidin-3-yl)oxy)benzonitrile], `N#Cc1ccc(O[C@H]2CN(S(=O)(=O)c3ccc(CC(F)(F)F)cc3)C[C@@]2(O)CO)cc1F` [Example 111, 2-fluoro-4-(((3S,4R)-4-hydroxy-4-(hydroxymethyl)-1-((4-(2,2,2-trifluoroethyl)phenyl)sulfonyl)pyrrolidin-3-yl)oxy)benzonitrile] is lower in pIC50: 8.00 to 10.00 for the first, 7.00 to 8.00 for the second. The first is the more potent here.

First: N#Cc1cc(F)c(O[C@H]2CN(S(=O)(=O)c3ccc(C(F)(F)F)cc3C#N)C[C@@]2(O)CO)cc1F [Example 19, 4-(((3S,4R)-1-((2-cyano-4-(trifluoromethyl)phenyl)sulfonyl)-4-hydroxy-4-(hydroxymethyl)pyrrolidin-3-yl)oxy)-2,5-difluorobenzonitrile]
Second: COc1cc(C#N)ccc1O[C@H]1CN(S(=O)(=O)c2ccc(C(F)(F)F)cc2C#N)C[C@@]1(O)CO [Example 10, 2-(((3R,4S)-4-(4-cyano-2-methoxyphenoxy)-3-hydroxy-3-(hydroxymethyl)pyrrolidin-1-yl)sulfonyl)-5-(trifluoromethyl)benzonitrile]
The pIC50 of the first is higher: 8.00 to 10.00 for the first, 7.00 to 8.00 for the second.

Compared with `N#Cc1ccc(S(=O)(=O)N2C[C@H](Oc3ccc(C#N)c(F)c3)[C@@](O)(CO)C2)c(Cl)c1` [Example 141, 4-(((3S,4S)-1-((2-chloro-4-cyanophenyl)sulfonyl)-4-hydroxy-4-(hydroxymethyl)pyrrolidin-3-yl)oxy)-2-fluorobenzonitrile], `N#Cc1ccc(O[C@H]2CN(S(=O)(=O)c3ccc(Cl)cc3Cl)C[C@@]2(O)CO)cc1F` [Example 2, 4-(((3S,4R)-1-((2,4-dichlorophenyl)sulfonyl)-4-hydroxy-4-(hydroxymethyl)pyrrolidin-3-yl)oxy)-2-fluorobenzonitrile] is higher in pIC50: 7.00 to 8.00 for the first, 8.00 to 10.00 for the second.

First: N#Cc1ccc(S(=O)(=O)N2C[C@H](Oc3ccc(C#N)c(F)c3)[C@](O)(CO)C2)c(C(F)(F)F)c1 [Example 68, 4-(((3S,4R)-1-((4-cyano-2-(trifluoromethyl)phenyl)sulfonyl)-4-hydroxy-4-(hydroxymethyl)pyrrolidin-3-yl)oxy)-2-fluorobenzonitrile]
Second: N#Cc1ccc(O[C@H]2CN(S(=O)(=O)c3ccc(I)cc3C#N)C[C@@]2(O)CO)cc1F [Example 114, 4-(((3S,4R)-1-((2-cyano-4-iodophenyl)sulfonyl)-4-hydroxy-4-(hydroxymethyl)pyrrolidin-3-yl)oxy)-2-fluorobenzonitrile]
The pIC50 of the first is lower: 7.00 to 8.00 for the first, 8.00 to 10.00 for the second. The second is the more potent here.

First: N#Cc1cc(Cl)ccc1S(=O)(=O)N1C[C@H](Oc2ccc(C(F)(F)F)cc2)[C@](O)(CO)C1 [Example 156, 5-chloro-2-(((3R,4S)-3-hydroxy-3-(hydroxymethyl)-4-(4-(trifluoromethyl)phenoxy)pyrrolidin-1-yl)sulfonyl)benzonitrile]
Second: N#Cc1ncc(O[C@H]2CN(S(=O)(=O)c3ccc(C(F)(F)F)cc3C#N)C[C@@]2(O)CO)cn1 [Example 13, 5-(((3S,4R)-1-((2-cyano-4-(trifluoromethyl)phenyl)sulfonyl)-4-hydroxy-4-(hydroxymethyl)pyrrolidin-3-yl)oxy)pyrimidine-2-carbonitrile]
The pIC50 of the first is higher: 8.00 to 10.00 for the first, 7.00 to 8.00 for the second. The first is the more potent here.

`N#Cc1ccc(O[C@H]2CN(S(=O)(=O)c3ccc(Cl)cc3C#N)C[C@@]23CNC(=O)O3)cc1F` [Example 254, 4-(((5S,9S)-7-((4-chloro-2-cyanophenyl)sulfonyl)-2-oxo-1-oxa-3,7-diazaspiro[4.4]nonan-9-yl)oxy)-2-fluorobenzonitrile] and `N#Cc1ccc(O[C@H]2CN(S(=O)(=O)c3ccccc3C#N)C[C@]2(O)CO)cc1F` [Example 137, 4-(((3S,4S)-1-((2-cyanophenyl)sulfonyl)-4-hydroxy-4-(hydroxymethyl)pyrrolidin-3-yl)oxy)-2-fluorobenzonitrile] fall in the same range of pIC50: 7.00 to 8.00 for the first, 7.00 to 8.00 for the second.

Compared with `Cc1nn(C)c(S(=O)(=O)N2C[C@H](Oc3ccc(C#N)c(F)c3)[C@](O)(CO)C2)c1Cl` [Example 124, 4-(((3S,4R)-1-((4-chloro-1,3-dimethyl-1H-pyrazol-5-yl)sulfonyl)-4-hydroxy-4-(hydroxymethyl)pyrrolidin-3-yl)oxy)-2-fluorobenzonitrile], `N#Cc1ccc(O[C@H]2CN(S(=O)(=O)c3ccc(Br)cn3)C[C@@]2(O)CN)cc1F` [Example 251, 4-(((3S,4S)-4-(aminomethyl)-1-((5-bromopyridin-2-yl)sulfonyl)-4-hydroxpyrrolidin-3-yl)oxy)-2-fluorobenzonitrile, 2,2,2-trifluoroacetate] is higher in pIC50: 6.00 to 7.00 for the first, 8.00 to 10.00 for the second.

`N#Cc1ccc(O[C@H]2CN(S(=O)(=O)c3ccccc3C#N)C[C@@]2(O)CO)c(OCC(F)(F)F)c1` [Example 185, 4-(((3S,4R)-1-((2-cyanophenyl)sulfonyl)-4-hydroxy-4-(hydroxymethyl)pyrrolidin-3-yl)oxy)-3-(2,2,2-trifluoroethoxy) benzonitrile] gave a pIC50 of 8.00 to 10.00.
